Laboratory results reported in patent US7501410B2, “Methods of inhibiting BTK and SYK protein kinases” (Roche Palo Alto LLC, priority 2006, dated 2009).

Legend:
Ramos cells = experiment: Inhibition of B-cell activation, B cell FLIPR assay in Ramos cells; assay type: cell-based; details: Homo sapiens, anti-IgM stimulated intracellular calcium increase
Source text: Inhibition of B-cell Activation—B Cell FLIPR Assay in Ramos Cells
The B cell FLIPR assay is a cell based functional method of determining the effect of potential inhibitors of the intracellular calcium increase from stimulation by an anti-IgM antibody. Ramos cells (human Burkitt's lymphoma cell line. ATCC-No. CRL-1596) were cultivated in Growth Media (described below). One day prior to assay, Ramos cells were resuspended in fresh growth media (same as above) and set at a concentration of 0.5×10^6/mL in tissue culture flasks. On day of assay, cells were counted and set at a concentration of 1×10^6/mL in growth media supplemented with 1 μM FLUO-3 AM(TefLabs Cat-No. 0116, prepared in anhydrous DMSO and 10% Pluronic acid) in a tissue culture flask, and incubated at 37° C. (4% CO2) for 1 h. To remove extracellular dye, cells were collected by centrifugation (5 min, 1000 rpm), resuspended in FLIPR buffer (described below) at 1×10^6 cells/mL and then dispensed into 96-well poly-D-lysine coated black/clear plates (BD Cat-No. 356692) at 1×10^5 cells per well. Test compounds at seven concentrations ranging from 100 μM to 0.03 μM were added, and allowed to incubate with cells for 30 min at RT. Ramos cell Ca^2+ signaling was stimulated by the addition of 10 μg/mL anti-IgM (Southern Biotech, Cat-No. 2020-01) and measured on a FLIPR (Molecular Devices, captures images of 96 well plates using a CCD camera with an argon laser at 480 nm excitation).
Growth Medium: RPMI 1640 medium with L-glutamine (Invitrogen, Cat-No. 61870-010), 10% Fetal Bovine Serum (FBS, Summit Biotechnology Cat-No. FP-100-05); 1 mM Sodium Pyruvate (Invitrogen Cat. No. 11360-070).
FLIPR buffer: HBSS (Invitrogen, Cat-No. 141175-079),2 mM CaCl2 (Sigma Cat-No. C-4901), HEPES (Invitrogen, Cat-No. 15630-080), 2.5 mM Probenecid (Sigma, Cat-No. P-8761), 0.1% BSA (Sigma, Cat-No. A-7906), 11 mM Glucose (Sigma, Cat-No. G-7528).
In order to achieve the highest final assay concentration of 100 μM, 24 μL of 10 mM compound stock solution (made in DMSO) is added directly to 576 μL of FLIPR buffer. The test compounds are diluted in FLIPR Buffer (using Biomek 2000 robotic pipettor) resulting in the following dilution scheme: vehicle, 1.00×10^−4 M, 1.00×10^−5, 3.16×10^−6, 1.00×10^−6, 3.16×10^−7, 1.00×10^−7, 3.16×10^−8.
Intracellular increases in calcium were reported using a max-min statistic (subtracting the resting baseline from the peak caused by addition of the stimulatory antibody using a Molecular Devices FLIPR control and statistic exporting software. The IC50 was determined using a non-linear curve fit (GraphPad Prism software). Representative results are in Table 1.

[1] = molecular target: T1, Bruton's Tyrosine Kinase (Btk) (Homo sapiens, UniProt Q06187); experiment: Determination of IC50 of Bruton's Tyrosine Kinase (Btk) inhibition, 33P filtration assay; assay type: biochemical; details: His-tagged full-length Btk, 100 μM ATP
T1 construct: 5-10 nM Btk enzyme (His-tagged, full-length); His tag
How it was run: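 Full-length His-tagged Btk (5-10 nM) preincubated 10 min at RT with compounds, then 30 min at 30° C with 30 μM biotinylated SH2 peptide, 100 μM ATP plus ^33P ATP, Mn/Mg in imidazole buffer pH 7.2. Product captured on streptavidin beads, counted by scintillation; 10-point half-log IC50 from 100 μM, background without substrate.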

T1 sequence (Q06187 whole entry): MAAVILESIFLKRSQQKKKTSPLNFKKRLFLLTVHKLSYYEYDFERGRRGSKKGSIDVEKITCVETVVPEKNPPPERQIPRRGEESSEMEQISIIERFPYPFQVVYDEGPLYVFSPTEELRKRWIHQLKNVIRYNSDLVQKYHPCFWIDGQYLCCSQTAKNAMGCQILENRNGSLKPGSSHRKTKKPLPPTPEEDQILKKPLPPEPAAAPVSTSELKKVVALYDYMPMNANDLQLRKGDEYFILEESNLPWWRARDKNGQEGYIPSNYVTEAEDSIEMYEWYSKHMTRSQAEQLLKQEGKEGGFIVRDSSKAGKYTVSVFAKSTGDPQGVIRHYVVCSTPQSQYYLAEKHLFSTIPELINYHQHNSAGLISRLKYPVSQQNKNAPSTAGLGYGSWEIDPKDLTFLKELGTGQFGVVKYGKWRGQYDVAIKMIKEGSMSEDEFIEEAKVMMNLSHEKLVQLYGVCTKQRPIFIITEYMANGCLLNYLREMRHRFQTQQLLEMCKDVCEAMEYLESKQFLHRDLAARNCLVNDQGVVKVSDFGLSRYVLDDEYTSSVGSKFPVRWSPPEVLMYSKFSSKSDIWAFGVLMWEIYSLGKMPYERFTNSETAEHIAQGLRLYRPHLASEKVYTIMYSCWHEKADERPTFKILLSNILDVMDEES

| IC50 (Ramos cells) | IC50 [1] | SMILES |
| --- | --- | --- |
| 1.2 µM | 0.275 µM | Cc1cc(Nc2nn(C(C)C)c(=O)c3cc(N4CCOCC4)ccc23)n[nH]1 [Example F-1, 2-Isopropyl-4-(5-methyl-1H-pyrazol-3-ylamino)-7-morpholino-2H-phthalazin-1-one] |
| 0.41 µM | 0.102 µM | Cc1cc(Nc2nn(C(C)C)c(=O)c3cc(N4CCN(C)CC4)ccc23)[nH]n1 [Example F-5, 2-Isopropyl-7-(4-methyl-piperazin-1-yl)-4-(5-methyl-2H-pyrazol-3-ylamino)-2H-phthalazin-1-one] |
| 0.575 µM | 0.186 µM | Cc1cc(Nc2nn(C(C)C)c(=O)c3cc(OCCN(C)C)ccc23)n[nH]1 [Example ZD-5, 7-(2-Dimethylamino-ethoxy)-2-isopropyl-4-(5-methyl-1H-pyrazol-3-ylamino)-2H-phthalazin-1-one] |
